Measured values: US20220000871A1, “METHODS AND COMPOSITIONS FOR TREATING NEURODEGENERATIVE DISEASES USING MODULATORS OF PHOSPHOGLYCERATE KINASE 1 (PGK1) ACTIVITY” (UNIVERSITY OF IOWA RESEARCH FOUNDATION, priority 2019, published 2022)
Where “and” joins values, the source holds several entries; their conditions need not be identical. Equal values may be shown once.

Experiments:
[1] = tested on: PD-free enrollees; assay: Truven database: incidence and survival analysis of PD diagnoses; format: in vivo, human; settings: matched cohort, 78,444 PD-free enrollees per group
Text: A cohort of enrollees newly started on TZ/DZ/AZ or tamsulosin was constructed. We defined newly started as at least 365 days of enrollment with prescription drug coverage prior to the first fill event for TZ/DZ/AZ or tamsulosin. Additionally, we required the enrollee to be PD-free at the time of the first fill (no prior PD diagnosis code). A total of 78,509 enrollees on TZ/DZ/AZ were identified and these enrollees were followed for an average of 285±382 days with a total of 118 cases of PD (incidence=0.15%). We matched each TZ/DZ/AZ user to a tamsulosin user of the same age at medication start and with the minimum difference in the duration of follow up. We were able to successfully match 78,444 of the 78,509 enrollees on TZ/DZ/AZ to an enrollee on tamsulosin. In the matched cohort, enrollees taking TZ/DZ/AZ have, on average, 284±381 days of follow up compared to 284±382 days of follow up in those taking tamsulosin. Of the 78,444 enrollees taking TZ/DZ/AZ, a total of 118 (0.15%) developed PD compared to 190 (0.24%) among those taking tamsulosin. We used a Cox proportional hazards regression to model the relative hazard of developing PD among those in the matched cohort taking TZ/DZ/AZ compared to those taking tamsulosin while accounting for censoring due to stopping the medication or exiting the data before developing PD. […]

[2] = tested on: MPTP-treated mice; assay: MPTP mouse model; format: in vivo
Procedure: A) Schematic for experiments in panels B-K. C57BL/6 mice (8 week-old) received 4 i.p. injections of MPTP (20 mg/kg at 2 hr intervals) or vehicle on day 0. […] N=6. […] Quantification of TH protein normalized to control (C,D). N=6. E-G) Example of immunostaining of TH in SNc and striatum (E, scale bars, 500 μm SNc, 1 mm striatum). Quantification of TH-positive neurons in SNc (F) and TH intensity in the striatum (G). N=6. H,I) Dopamine (DA) content in striatum and SnC. N=6. J) Percentage of TH-positive neurons that were positive for TUNEL staining. N=6. K) Behavioral response of mice in rotarod test. Data are duration that mice remained on an accelerated rolling rod normalized to mice at day 0. N=8. Data are examples and mean±SEM. […] Statistical analysis at day 7 and day 14 was Mann-Whitney. In the figure, *p<0.05, **p<0.01.
FIG. 10. […] A) Schematic of experiments in panels B-F. C57BL/6 mice (8 week-old) received 4 i.p. injections of MPTP (20 mg/kg at 2 hr intervals) or vehicle on day 0. […] B,C) Pyruvate and ATP levels in mouse SNc. N=6. D) Mitochondrial DNA (mDNA, 16S and ND1) relative to nuclear DNA (nDNA, intron β-globin) by quantitative PCR of mouse striatum and SNc. N=3. E,F) VDAC (E) and PHB1 (F) protein levels in striatum and SNc assayed by western blot and normalized to control. N=6.
FIG. 12. […] A) Schematic for experiments in panels B-J. C57BL/6 mice (8 week-old) received 4 i.p. injections of MPTP (20 mg/kg at 2 hr intervals) or vehicle on day 0. […] B) Example of TH immunostaining in the SNc on days 7 and 14. Scale bar, 500 μm. C-F) Measurement of DOPAC in mouse striatum (C) and SNc (D) and measurement of HVA in striatum (E) and SNc (F). (N=6). G) Example of TH and TUNEL co-staining in the SNc. TH (green), TUNEL (red), and DAPI (nuclei, blue). Scale bar, 25 μm. Quantitative data are in FIG. 2J. H) Left panels are Nissl staining of neurons in the striatum. Samples were obtained 7 days after MPTP injection. Right panels show the quantification. […] Scale bar, 400 μm. N=3 per group. I,J) Behavioral response of mice in the pole test. (I) Time mice took to turn their heads from upward to downward. (J) Time mice took to climb down the pole. N=8.
MPTP was injected (i.p.) on one day at 20 mg/kg for four times at 2-hour intervals, as previously described (4). […] At the end of the drug or saline treatment, behavioral tests including rotarod test and pole test were carried out before the animals were sacrificed.
The rotarod test was carried out using an automated rotarod (E103, UGO BASILE). At a fixed speed of 15 revolutions per minute (rpm), mice were pre-trained for two consecutive days until they were able to remain on the rod for more than 60 seconds. […] The latency to fall was recorded for a maximum recording time of 600 seconds. The behavior was monitored by a video camera.
This test was carried out by leaving a pole in the cage where the mice were housed. The pole test was performed on the 14th day after MPTP injection as previously described (9). The mouse was placed in a head-upward position on top of a vertical pole (diameter 8 mm, height 55 cm) with a ball (diameter 2.5 cm) on the head of the pole. The pole was wrapped with the nylon gauze to prevent the mouse from slipping down. Each mouse was trained twice before testing. The time that the mouse took to turn his head from upward to downward (Time: Turn) and the time the mouse took to reach the floor with his forepaws (Time: Locomotion Activity) were recorded. Each mouse was tested three times with 5 min. intervals, and the average time was quantified.

[3] = tested on: PINK1^5 flies; assay: PINK1^5 fly genetic model of PD; format: in vivo, Drosophila; settings: TZ day 1 after hatching to day 10
Text: N=6, with 80 flies for each treatment in each trial. […] N=3, with 100 flies for each treatment in each trial. […] N=6, with 100 flies for each treatment in each trial. […] Data are from individual groups of flies (A-F) and individual mice (I-K). Bars and whiskers indicate mean±SEM. […] In the figures, *p<0.05, **p<0.01, ***p<0.001. For panel D, the statistical analysis was 1-way ANOVA with Tukey, and for all other panels, a Kruskal-Wallis with a Dwass-Steele-Critchlow-Fligner.
A genetic model of PD in PINK1^5 flies. […] N=3, with 100 flies for each treatment in each trial.

[4] = MPTP 20 mg/kg x4, TZ 10 μg/kg daily, day 7
[5] = TZ begun at time of MPTP, day 7

Row | SMILES | enrollees who developed PD [1] | number of people who developed PD [1] | tyrosine hydroxylase levels in MPTP-treated mice ([2]; SNc, western blot, FIG. 17B) | wing posture defects [3] | ATP levels after MPTP [2, 4] | pyruvate levels after MPTP [2, 4] | MPTP-induced defects (TH levels, TH-positive cells, TH immunostaining, dopamine, DOPAC, HVA content, TUNEL-positive TH cells) [2, 5] | motor function (rotarod, pole test) [2, 5] | MPTP-induced abnormalities (TH, dopamine, DOPAC, HVA, TUNEL) ([2]; TZ delayed for 7 days after MPTP, day 14) | motor performance (rotarod, pole test) ([2]; delayed TZ administration, day 14)
1 | CCOc1ccccc1OCCN[C@H](C)Cc1ccc(OC)c(S(N)(=O)=O)c1 [tamsulosin] | 0.25% and 0.24% | 190 | did not rescue | – | – | – | – | – | – | –
2 | COc1cc2nc(N3CCN(C(=O)C4CCCO4)CC3)nc(N)c2cc1OC (stereo not shown) [TZ, terazosin] | – | – | – | partially reversed | prevented the fall | prevented the fall | attenuated all these defects | prevented deficits | improved the abnormalities | improved
